Columns and labels:
[1] = mouse, in vivo, iv, 4 mg/kg
Experimental: A group of mice were injected intravenously with sterile PBS through the tail vein as negative control. 24 hours after the last treatment, 0.5 mL of blood was collected from the animals for comprehensive metabolic panel analysis. The data was analyzed by Student's t-test followed by Dunnett's multiple comparison tests using GraphPad Prism (GraphPad Software, San Diego, CA). p values smaller than 0.05 were considered significant.

P. aeruginosa = assay: MIC/MBC broth microdilution, Example 1; assay type: cell-based, Pseudomonas aeruginosa; settings: Example 1 CS NPs
Experimental: (§1) To evaluate antibacterial efficacy of the CS NPs, their minimum inhibitory concentration (MIC) and minimum bactericidal concentration (MBC) were assessed against 5 reference bacterial strains and 39 clinical isolates of carbapenem-resistant A. baumannii, P. aeruginosa, E. coli, and K. pneumoniae.
(§2) Reference bacterial stains were purchased from ATCC. Clinical isolates of carbapenem-resistant bacteria were obtained from National Health Research Institutes (NHRI) and Tri-Service General Hospital (TSGH). MIC is defined as the lowest concentration of antibiotics required to inhibit the growth of bacteria. MBC is defined as the lowest concentration of antibiotics required to eradicate microorganisms. The MICs of CS and the CS NPs were determined using a broth microdilution method. Bacterial suspensions were adjusted to a turbidity of McFarland 0.5±0.05 and cultured overnight with different concentrations of CS or CS NPs. A control group without antimicrobial treatment was prepared as a reference. Following overnight incubation, solution turbidity was determined by visual inspection. Culture wells with no observable turbidity were further sub-cultured for MBC evaluation. Solutions from the clear wells were deposited onto an agar plate and cultured overnight to determine the MBCs.

A. baumannii 17978 = assay: Murine model of A. baumannii pneumonia, survival; assay type: in vivo; settings: C57BL/6 mice, 5 mg/kg i.v. twice a day
Experimental: Briefly, A. baumannii 17978 were grown in 30 mL LB broth under shaking at 37° C. to reach the mid-logarithmic phase. The bacteria were then pelleted by centrifugation at 4,000 g for 15 minutes. The bacteria pellet was resuspended in PBS and mixed with 5% mucin derived from porcine stomach (type 3; Sigma-Aldrich, Taiwan).
To induce A. baumannii pneumonia, 8-week-old C57BL/6 mice (National Laboratory Animal Center, Taiwan) were first anesthetized with 2% tribromoethanol (Avertin; 0.018 mL/g). 6.07×10^8 CFU of A. baumannii 17978 were then administered to the mice via intra-tracheal injection to induce pneumonia (FIG. 4A). At 2 hours post-inoculation, the mice were treated twice a day with PBS (as the control), CS, or CS NPs at 5 mg/kg via intravenous injections.
The efficacy between CS and the CS NPs was compared by survival analysis. The difference in survival among the groups was analyzed by a Log-rank test using GraphPad Prism. Treatment efficacy of CS and CS NPs was observed 36 hour post-infection as no mortality was recorded in either of the two drug treatment groups whereas 37.5% of the control group animals were deceased. […] The survival outcome supports retention of CS's antimicrobial activity following nanoparticle assembly.

A. baumannii = assay: MIC/MBC broth microdilution, Example 2; assay type: cell-based, Acinetobacter baumannii; settings: Example 2 CS NPs
Experimental: as §2
(§3) To evaluate the antibacterial efficacy of the CS NPs of this study, their MIC and MBC were assessed against 5 reference bacterial strains and 20 clinical isolates of carbapenem-resistant A. baumannii, E. coli, K. pneumoniae, and P. aeruginosa according to the procedures set forth in EXAMPLE 1. Reference bacterial stains were purchased from ATCC. Carbapenem-resistant clinical isolated were obtained from NHRI.

E. coli [2] = assay: MIC/MBC broth microdilution, Example 1; assay type: cell-based; settings: Example 1 CS NPs
Experimental: as §1, §2

E. coli [3] = assay: MIC/MBC broth microdilution, Example 2; assay type: cell-based; settings: Example 2 CS NPs
Experimental: as §2, §3

CS release by dialysis = assay type: physicochemical; settings: 50 k MWCO membrane, 37° C., pH 7.4 and pH 5.0
Experimental: CS release from the CS NPs was studied using a dialysis tube with 50 k MWCO membrane (Pur-A-Lyzer™ Maxi Dialysis Kit, Sigma-Aldrich) in 0.15 M phosphate buffer (pH 7.4) and in 0.15 M acetate buffer solution (pH 5.0). […] Samples were each placed into a dialysis tube at 37° C. under gentle stirring. At predetermined time points, the samples were collected and analyzed for CS content using HPLC.

[4] = clinical carbapenem-resistant P. aeruginosa NHRI 1
[5] = clinical carbapenem-resistant P. aeruginosa NHRI 2
[6] = clinical carbapenem-resistant P. aeruginosa NHRI 3
[7] = clinical carbapenem-resistant P. aeruginosa NHRI 4
[8] = clinical carbapenem-resistant P. aeruginosa NHRI 5
[9] = reference strain P. aeruginosa 27853
[10] = clinical carbapenem-resistant isolate A. baumannii NHRI 1
[11] = clinical carbapenem-resistant isolate A. baumannii NHRI 2
[12] = clinical carbapenem-resistant isolate A. baumannii NHRI 3
[13] = clinical carbapenem-resistant isolate A. baumannii NHRI 4
[14] = clinical carbapenem-resistant isolate A. baumannii NHRI 5
[15] = reference strain A. baumannii 17978
[16] = reference strain A. baumannii 19606
[17] = clinical carbapenem-resistant E. coli NHRI 1
[18] = clinical carbapenem-resistant E. coli NHRI 2
[19] = clinical carbapenem-resistant E. coli NHRI 3
[20] = clinical carbapenem-resistant E. coli NHRI 4
[21] = clinical carbapenem-resistant E. coli NHRI 5
[22] = clinical carbapenem-resistant E. coli TSGH 2
[23] = clinical carbapenem-resistant E. coli TSGH 4
[24] = clinical carbapenem-resistant E. coli TSGH 6
[25] = clinical carbapenem-resistant E. coli TSGH 8
[26] = clinical carbapenem-resistant E. coli TSGH 10
[27] = clinical carbapenem-resistant E. coli TSGH 14
[28] = clinical carbapenem-resistant E. coli TSGH 20
[29] = clinical carbapenem-resistant E. coli TSGH 21
[30] = clinical carbapenem-resistant isolate E. coli NHRI 1
[31] = clinical carbapenem-resistant isolate E. coli NHRI 2
[32] = clinical carbapenem-resistant isolate E. coli NHRI 3
[33] = clinical carbapenem-resistant isolate E. coli NHRI 4
[34] = clinical carbapenem-resistant isolate E. coli NHRI 5

Which “other parameters in the comprehensive metabolic panel” value [1] does the source give for colistin [CS] here?
The value was “neither CS nor the CS NPs induced any notable changes”.

What about the MBC (P. aeruginosa; [4]) of the same substance?
Its MBC is 2 µg/mL.

What about the MIC (P. aeruginosa; [4]) of the same substance?
Its MIC is 2 µg/mL.

And the MBC (P. aeruginosa; [5])?
Its MBC is 4 µg/mL.

And the MIC (P. aeruginosa; [5])?
The MIC was 2 µg/mL.

And the MBC (P. aeruginosa; [6])?
Its MBC is 8 µg/mL.

What about the MIC (P. aeruginosa; [6]) of the same substance?
The MIC was 2 µg/mL.

What about the MBC (P. aeruginosa; [7]) of the same substance?
Its MBC is 8 µg/mL.

What about the MIC (P. aeruginosa; [7]) of the same substance?
Its MIC is 4 µg/mL.

What about the MBC (P. aeruginosa; [8]) of the same substance?
The MBC was 4 µg/mL.

And the MIC (P. aeruginosa; [8])?
The MIC was 2 µg/mL.

And the MBC (P. aeruginosa; [9])?
Its MBC is 1 µg/mL.

And the MIC (P. aeruginosa; [9])?
Its MIC is 1 µg/mL.

What about the mortality (A. baumannii 17978; 36 hour post-infection) of the same substance?
The mortality was “no mortality”.

What about the “surviving mice out of 8 assessed animals” value (A. baumannii 17978; 72 hours of observation) of the same substance?
The value was 4.

And the MBC (A. baumannii; [10])?
The MBC was 2 µg/mL.

What about the MIC (A. baumannii; [10]) of the same substance?
The MIC was 1 µg/mL.

What about the MBC (A. baumannii; [11]) of the same substance?
The MBC was 2 µg/mL.

And the MIC (A. baumannii; [11])?
Its MIC is 2 µg/mL.

And the MBC (A. baumannii; [12])?
The MBC was 2 µg/mL.

And the MIC (A. baumannii; [12])?
Its MIC is 1 µg/mL.

And the MBC (A. baumannii; [13])?
The MBC was 4 µg/mL.

What about the MIC (A. baumannii; [13]) of the same substance?
The MIC was 1 µg/mL.

And the MBC (A. baumannii; [14])?
The MBC was 2 µg/mL.

And the MIC (A. baumannii; [14])?
Its MIC is 1 µg/mL.

What about the MBC (A. baumannii; [15]) of the same substance?
Its MBC is 2 µg/mL.

What about the MIC (A. baumannii; [15]) of the same substance?
The MIC was 2 µg/mL.

What about the MBC (A. baumannii; [16]) of the same substance?
Its MBC is 4 µg/mL.

What about the MIC (A. baumannii; [16]) of the same substance?
The MIC was 2 µg/mL.

What about the MBC (E. coli [2]; [17]) of the same substance?
The MBC was 1 µg/mL.

What about the MIC (E. coli [2]; [17]) of the same substance?
The MIC was 1 µg/mL.

What about the MBC (E. coli [2]; [18]) of the same substance?
The MBC was 1 µg/mL.

And the MIC (E. coli [2]; [18])?
Its MIC is 1 µg/mL.

And the MBC (E. coli [2]; [19])?
Its MBC is 1 µg/mL.

And the MIC (E. coli [2]; [19])?
Its MIC is 1 µg/mL.

And the MBC (E. coli [2]; [20])?
The MBC was 2 µg/mL.

And the MIC (E. coli [2]; [20])?
Its MIC is 1 µg/mL.

What about the MBC (E. coli [2]; [21]) of the same substance?
Its MBC is 2 µg/mL.

And the MIC (E. coli [2]; [21])?
Its MIC is 1 µg/mL.

And the MBC (E. coli [2]; [22])?
Its MBC is 1 µg/mL.

What about the MIC (E. coli [2]; [22]) of the same substance?
Its MIC is 1 µg/mL.

And the MBC (E. coli [2]; [23])?
Its MBC is 1 µg/mL.

And the MIC (E. coli [2]; [23])?
Its MIC is 1 µg/mL.

And the MBC (E. coli [2]; [24])?
The MBC was 2 µg/mL.

And the MIC (E. coli [2]; [24])?
Its MIC is 1 µg/mL.

And the MBC (E. coli [2]; [25])?
Its MBC is 2 µg/mL.

And the MIC (E. coli [2]; [25])?
The MIC was 1 µg/mL.

What about the MBC (E. coli [2]; [26]) of the same substance?
Its MBC is 1 µg/mL.

What about the MIC (E. coli [2]; [26]) of the same substance?
Its MIC is 1 µg/mL.

What about the MBC (E. coli [2]; [27]) of the same substance?
The MBC was 1 µg/mL.

And the MIC (E. coli [2]; [27])?
Its MIC is 1 µg/mL.

And the MBC (E. coli [2]; [28])?
Its MBC is 1 µg/mL.

And the MIC (E. coli [2]; [28])?
Its MIC is 1 µg/mL.

What about the MBC (E. coli [2]; [29]) of the same substance?
Its MBC is 1 µg/mL.

What about the MIC (E. coli [2]; [29]) of the same substance?
Its MIC is 1 µg/mL.

And the MBC (E. coli [2]; reference strain E. coli 25922)?
Its MBC is 2 µg/mL.

And the MIC (E. coli [2]; reference strain E. coli 25922)?
The MIC was 1 µg/mL.

What about the MBC (E. coli [3]; [30]) of the same substance?
Its MBC is 2 µg/mL.

And the MIC (E. coli [3]; [30])?
The MIC was 2 µg/mL.

And the MBC (E. coli [3]; [31])?
Its MBC is 2 µg/mL.

And the MIC (E. coli [3]; [31])?
The MIC was 1 µg/mL.

What about the MBC (E. coli [3]; [32]) of the same substance?
The MBC was 2 µg/mL.

What about the MIC (E. coli [3]; [32]) of the same substance?
Its MIC is 1 µg/mL.

What about the MBC (E. coli [3]; [33]) of the same substance?
The MBC was 1 µg/mL.

And the MIC (E. coli [3]; [33])?
The MIC was 1 µg/mL.

What about the MBC (E. coli [3]; [34]) of the same substance?
Its MBC is 0.5 µg/mL.

And the MIC (E. coli [3]; [34])?
Its MIC is 0.5 µg/mL.

What about the MBC (E. coli [3]; reference strain E. coli 25922) of the same substance?
The MBC was 2 µg/mL.

What about the MIC (E. coli [3]; reference strain E. coli 25922) of the same substance?
The MIC was 1 µg/mL.

And the “release profile in dialysis” value (CS release by dialysis)?
Its value is “rapidly dialyzed from the setup”.
